According to publication PMC10638548 (Acta Pharmaceutica Sinica. B, 2023):

Key:
CYP2A6 = molecular target: T1, CYP2A6 (Homo sapiens, UniProt P11509); details: 20 μmol/L NMV, 10 pmol CYP, 1 mmol/L NADPH, 37 °C, 1 h
T1 sequence (P11509 1-494): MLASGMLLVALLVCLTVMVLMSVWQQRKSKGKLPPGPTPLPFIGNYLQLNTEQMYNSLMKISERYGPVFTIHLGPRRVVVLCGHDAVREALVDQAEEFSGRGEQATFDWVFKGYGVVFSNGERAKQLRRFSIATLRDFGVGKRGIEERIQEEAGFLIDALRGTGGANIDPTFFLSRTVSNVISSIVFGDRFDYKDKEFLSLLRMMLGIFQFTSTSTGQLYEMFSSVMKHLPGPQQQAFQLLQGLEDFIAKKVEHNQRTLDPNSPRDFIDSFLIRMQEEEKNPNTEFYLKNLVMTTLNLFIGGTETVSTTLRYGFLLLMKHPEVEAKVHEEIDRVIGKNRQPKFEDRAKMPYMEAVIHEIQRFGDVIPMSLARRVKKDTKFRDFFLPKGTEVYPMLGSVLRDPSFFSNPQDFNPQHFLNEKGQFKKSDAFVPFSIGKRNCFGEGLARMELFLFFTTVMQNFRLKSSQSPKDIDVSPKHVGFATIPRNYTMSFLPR

CYP2C9 = CYP2C9 (Homo sapiens, UniProt P11712); details: 20 μmol/L NMV, 10 pmol CYP, 1 mmol/L NADPH, 37 °C, 1 h
Sequence of CYP2C9 (P11712 whole entry): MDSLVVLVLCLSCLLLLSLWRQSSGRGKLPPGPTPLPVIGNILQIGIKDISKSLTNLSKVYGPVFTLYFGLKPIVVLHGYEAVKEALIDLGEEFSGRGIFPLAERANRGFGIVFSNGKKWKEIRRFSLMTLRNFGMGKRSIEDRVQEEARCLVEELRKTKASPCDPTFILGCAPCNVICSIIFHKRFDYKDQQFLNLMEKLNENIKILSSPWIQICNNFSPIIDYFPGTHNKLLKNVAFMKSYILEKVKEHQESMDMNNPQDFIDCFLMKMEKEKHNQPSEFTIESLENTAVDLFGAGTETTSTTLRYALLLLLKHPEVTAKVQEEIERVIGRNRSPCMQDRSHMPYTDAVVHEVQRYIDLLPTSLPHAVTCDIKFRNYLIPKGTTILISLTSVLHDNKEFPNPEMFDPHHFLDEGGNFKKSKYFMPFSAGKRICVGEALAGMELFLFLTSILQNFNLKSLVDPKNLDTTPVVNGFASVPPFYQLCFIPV

[1] = cited from earlier work
[2] = hPXR/CYP3A mice pretreated with RCP (60 mg/kg, po, bid, 4 days), then oral RTV 20 mg/kg + NMV 60 mg/kg
CYP2D6 = CYP2D6 (Homo sapiens, UniProt P10635); details: 20 μmol/L NMV, 10 pmol CYP, 1 mmol/L NADPH, 37 °C, 1 h
Sequence of CYP2D6 (P10635 whole entry): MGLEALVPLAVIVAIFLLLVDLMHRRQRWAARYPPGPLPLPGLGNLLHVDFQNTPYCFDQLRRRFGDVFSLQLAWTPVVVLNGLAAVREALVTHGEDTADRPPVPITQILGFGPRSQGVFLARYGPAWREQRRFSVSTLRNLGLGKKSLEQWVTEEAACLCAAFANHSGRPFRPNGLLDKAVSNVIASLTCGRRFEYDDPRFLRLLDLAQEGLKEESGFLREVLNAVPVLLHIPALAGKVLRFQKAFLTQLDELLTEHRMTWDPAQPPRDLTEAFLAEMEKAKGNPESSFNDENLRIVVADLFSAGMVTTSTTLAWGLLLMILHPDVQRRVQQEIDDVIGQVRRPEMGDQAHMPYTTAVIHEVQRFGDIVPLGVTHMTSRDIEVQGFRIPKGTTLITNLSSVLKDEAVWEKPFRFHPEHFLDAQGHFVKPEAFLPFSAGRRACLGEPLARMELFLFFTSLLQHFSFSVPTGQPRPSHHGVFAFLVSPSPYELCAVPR

CYP2C19 = CYP2C19 (Homo sapiens, UniProt P33261); details: 20 μmol/L NMV, 10 pmol CYP, 1 mmol/L NADPH, 37 °C, 1 h
Sequence of CYP2C19 (P33261 whole entry): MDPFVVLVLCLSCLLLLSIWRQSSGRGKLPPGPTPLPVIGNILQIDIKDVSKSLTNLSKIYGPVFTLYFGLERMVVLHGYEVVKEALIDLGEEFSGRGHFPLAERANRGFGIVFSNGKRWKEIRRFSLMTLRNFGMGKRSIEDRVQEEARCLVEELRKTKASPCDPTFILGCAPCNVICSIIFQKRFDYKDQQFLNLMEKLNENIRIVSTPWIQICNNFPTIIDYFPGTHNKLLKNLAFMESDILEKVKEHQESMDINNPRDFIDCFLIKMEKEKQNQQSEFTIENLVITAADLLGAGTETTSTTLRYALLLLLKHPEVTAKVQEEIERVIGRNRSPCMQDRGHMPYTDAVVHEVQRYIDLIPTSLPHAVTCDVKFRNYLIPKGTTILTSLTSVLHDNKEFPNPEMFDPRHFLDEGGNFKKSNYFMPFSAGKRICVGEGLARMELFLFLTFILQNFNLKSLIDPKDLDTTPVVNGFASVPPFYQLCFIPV

CYP3A5 = CYP3A5 (Homo sapiens, UniProt P20815); details: 20 μmol/L NMV, 10 pmol CYP, 1 mmol/L NADPH, 37 °C, 1 h
Sequence of CYP3A5 (P20815 whole entry): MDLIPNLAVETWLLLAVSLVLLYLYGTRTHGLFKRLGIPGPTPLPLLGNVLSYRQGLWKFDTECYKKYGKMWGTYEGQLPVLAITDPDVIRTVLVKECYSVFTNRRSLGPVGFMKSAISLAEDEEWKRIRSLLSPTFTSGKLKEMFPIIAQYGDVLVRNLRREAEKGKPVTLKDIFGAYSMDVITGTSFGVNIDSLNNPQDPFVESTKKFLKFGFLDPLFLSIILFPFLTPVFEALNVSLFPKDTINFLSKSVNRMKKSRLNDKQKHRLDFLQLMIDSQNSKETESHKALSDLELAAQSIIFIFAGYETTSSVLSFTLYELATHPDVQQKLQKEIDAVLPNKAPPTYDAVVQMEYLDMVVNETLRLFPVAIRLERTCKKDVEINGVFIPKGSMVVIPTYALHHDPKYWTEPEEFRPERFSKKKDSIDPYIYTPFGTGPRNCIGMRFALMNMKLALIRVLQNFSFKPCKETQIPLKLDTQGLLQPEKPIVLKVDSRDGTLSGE

CYP2B6 = molecular target: T2, CYP2B6 (Homo sapiens, UniProt P20813); details: 20 μmol/L NMV, 10 pmol CYP, 1 mmol/L NADPH, 37 °C, 1 h
T2 sequence (P20813 1-491): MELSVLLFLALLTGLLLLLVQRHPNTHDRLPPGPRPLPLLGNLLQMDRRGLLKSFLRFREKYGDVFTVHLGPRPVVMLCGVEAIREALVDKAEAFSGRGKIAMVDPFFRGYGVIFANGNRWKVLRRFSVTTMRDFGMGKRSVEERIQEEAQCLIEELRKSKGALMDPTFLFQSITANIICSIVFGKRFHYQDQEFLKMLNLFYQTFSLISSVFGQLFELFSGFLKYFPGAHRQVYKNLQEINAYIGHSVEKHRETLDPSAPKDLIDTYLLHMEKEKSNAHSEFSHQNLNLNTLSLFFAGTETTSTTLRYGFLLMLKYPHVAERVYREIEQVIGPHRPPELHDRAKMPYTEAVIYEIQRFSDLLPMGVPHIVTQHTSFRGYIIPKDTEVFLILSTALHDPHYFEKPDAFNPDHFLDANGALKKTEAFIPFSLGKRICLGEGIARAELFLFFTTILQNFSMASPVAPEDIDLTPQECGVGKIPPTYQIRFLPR

CYP3A4 = CYP3A4 (Homo sapiens, UniProt P08684); details: 20 μmol/L NMV, 10 pmol CYP, 1 mmol/L NADPH, 37 °C, 1 h
Sequence of CYP3A4 (P08684 whole entry): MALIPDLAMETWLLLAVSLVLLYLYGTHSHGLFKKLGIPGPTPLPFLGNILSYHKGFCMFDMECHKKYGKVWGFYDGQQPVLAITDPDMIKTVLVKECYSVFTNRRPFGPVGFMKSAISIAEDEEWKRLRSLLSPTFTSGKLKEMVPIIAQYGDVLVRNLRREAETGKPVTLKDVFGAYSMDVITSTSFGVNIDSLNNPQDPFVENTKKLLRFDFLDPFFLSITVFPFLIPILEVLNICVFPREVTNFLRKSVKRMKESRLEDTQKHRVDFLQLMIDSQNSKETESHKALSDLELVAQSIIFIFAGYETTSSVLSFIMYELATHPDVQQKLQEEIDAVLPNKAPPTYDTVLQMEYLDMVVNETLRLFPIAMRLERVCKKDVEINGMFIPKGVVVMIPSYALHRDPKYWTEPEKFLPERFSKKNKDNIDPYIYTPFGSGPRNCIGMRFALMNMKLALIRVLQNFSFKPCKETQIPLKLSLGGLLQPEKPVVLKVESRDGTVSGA

CYP2E1 = CYP2E1 (Homo sapiens, UniProt P05181); details: 20 μmol/L NMV, 10 pmol CYP, 1 mmol/L NADPH, 37 °C, 1 h
Sequence of CYP2E1 (P05181 whole entry): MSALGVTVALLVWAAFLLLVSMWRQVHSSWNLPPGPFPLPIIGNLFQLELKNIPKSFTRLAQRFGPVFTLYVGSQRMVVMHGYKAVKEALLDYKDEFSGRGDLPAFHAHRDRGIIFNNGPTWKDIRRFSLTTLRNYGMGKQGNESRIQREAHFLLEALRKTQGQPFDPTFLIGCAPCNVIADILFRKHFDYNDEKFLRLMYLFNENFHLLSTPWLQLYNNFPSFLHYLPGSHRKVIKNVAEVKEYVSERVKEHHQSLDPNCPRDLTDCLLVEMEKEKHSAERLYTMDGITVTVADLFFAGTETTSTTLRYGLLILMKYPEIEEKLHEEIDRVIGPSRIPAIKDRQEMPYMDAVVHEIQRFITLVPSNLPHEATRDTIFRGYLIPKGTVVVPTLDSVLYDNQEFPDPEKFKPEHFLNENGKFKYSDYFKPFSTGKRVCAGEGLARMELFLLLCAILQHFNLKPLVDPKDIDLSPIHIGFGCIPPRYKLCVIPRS

[3] = 20 μmol/L NMV, 0.1 mg HLM, 1 mmol/L NADPH, 37 °C, 1 h
CYP1A2 = molecular target: T3, CYP1A2 (Homo sapiens, UniProt P05177); details: 20 μmol/L NMV, 10 pmol CYP, 1 mmol/L NADPH, 37 °C, 1 h
T3 sequence (P05177 1-516): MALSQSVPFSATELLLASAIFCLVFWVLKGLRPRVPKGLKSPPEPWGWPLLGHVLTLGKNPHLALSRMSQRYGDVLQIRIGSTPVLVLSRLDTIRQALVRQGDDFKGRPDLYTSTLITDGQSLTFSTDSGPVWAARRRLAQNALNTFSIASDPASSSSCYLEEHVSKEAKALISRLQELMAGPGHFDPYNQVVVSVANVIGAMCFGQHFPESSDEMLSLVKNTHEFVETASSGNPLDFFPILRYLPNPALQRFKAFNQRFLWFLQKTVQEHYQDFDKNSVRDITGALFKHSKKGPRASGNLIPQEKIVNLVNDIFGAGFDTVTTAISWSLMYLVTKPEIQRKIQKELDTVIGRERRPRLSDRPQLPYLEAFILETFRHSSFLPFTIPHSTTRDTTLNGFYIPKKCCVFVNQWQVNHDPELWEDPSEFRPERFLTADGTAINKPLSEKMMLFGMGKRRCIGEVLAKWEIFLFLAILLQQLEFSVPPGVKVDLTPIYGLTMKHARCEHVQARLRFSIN

CYP3A protein = details: RCP 60 mg/kg po bid 4 days
CYP3A4 mRNA = details: hPXR/CYP3A mice; RIF 50 mg/kg in diet 7 days; RCP 60 mg/kg po bid 4 days
[4] = clinical studies, co-administration of carbamazepine (CYP3A inducer) ref 16

Row | Structure (SMILES) | contribution of CYP2A6 to NMV metabolism (CYP2A6) | contribution of CYP2C9 to NMV metabolism (CYP2C9) | decrease in AUC of NMV [1, 4] [%] | decrease in Cmax of NMV [1, 4] [%] | reduction for NMV exposure ([1]; healthy subjects, CYP3A4 inducer carbamazepine, Paxlovid fact sheet ref 16) [%] | change of NMV (systemic) exposure (in words) ([1]; healthy subjects, CYP3A4 inhibitor itraconazole, Paxlovid fact sheet ref 16) | change of AUC in serum vs control group (in words) [2] | change of Cmax in serum vs control group (in words) [2] | contribution of CYP2D6 to NMV metabolism (CYP2D6) | contribution of CYP2C19 to NMV metabolism (CYP2C19) | contribution of CYP3A5 to NMV metabolism (formation of M1–M7) (CYP3A5) | contribution of CYP2B6 to NMV metabolism (CYP2B6) | contribution of CYP3A4 to NMV metabolism (formation of M1–M7) (CYP3A4) | contribution of CYP2E1 to NMV metabolism (CYP2E1) | number of NMV metabolites identified in the incubation with HLM [3] | contribution of CYP1A2 to NMV metabolism (CYP1A2) | increase of protein level of CYP3A in the liver vs control (CYP3A protein; Pxr-null/CYP3A mice) | protein level of CYP3A in the liver vs control (CYP3A protein; hPXR/CYP3A mice, RIF 50 mg/kg in diet 7 days) | mRNA expression of CYP3A4 in the liver vs control (CYP3A4 mRNA)
1 | CC(C)(C)[C@H](NC(=O)C(F)(F)F)C(=O)N1C[C@H]2[C@@H]([C@H]1C(=O)N[C@H](C#N)C[C@@H]1CCNC1=O)C2(C)C [NMV, nirmatrelvir] | did not contribute to NMV metabolism | did not contribute to NMV metabolism | ~50 | ~50 | ~50 | increased the systemic exposure of NMV | significantly decreased | significantly decreased | did not contribute to NMV metabolism | did not contribute to NMV metabolism | also involved in the 7 metabolic pathways of NMV, especially for the production of M4 and M5 | did not contribute to NMV metabolism | contributed the most to all the 7 metabolic pathways of NMV | did not contribute to NMV metabolism | 7 | did not contribute to NMV metabolism |  |  | 
2 | CC[C@H]1CN2CC[C@]3(C(=O)Nc4ccccc43)[C@@H]2C[C@@H]1/C(=C\OC)C(=O)OC [RCP, rhynchophylline] |  |  |  |  |  |  |  |  |  |  |  |  |  |  |  |  | but not in Pxr-null/CYP3A mice | increased the protein level of CYP3A | significantly upregulated
3 | CC(C)c1nc(CN(C)C(=O)N[C@H](C(=O)N[C@@H](Cc2ccccc2)C[C@H](O)[C@H](Cc2ccccc2)NC(=O)OCc2cncs2)C(C)C)cs1 [RTV, ritonavir] |  |  |  |  |  |  | also decreased | also decreased |  |  |  |  |  |  |  |  |  |  | 
